Test [1] is filed under the species Homo sapiens. Kind of test: Selectivity ratio of Ki for human MC4R to Ki for human MC1R.
Test [2] addresses T1, Melanocyte-stimulating hormone receptor (Homo sapiens, UniProt Q01726). Kind of test: Agonist activity at human MC1R expressed in HEK2936E cells assessed as cAMP production in presence of IBMX by time resolved fluorescence assay. Format: functional, cell-based. Conditions: read-out: pEC50 (converted). (In general: cAMP levels reflect the balance of adenylyl cyclase and phosphodiesterase activity.)

Test [3] deals with T2, Melanocortin receptor 3 (Homo sapiens, UniProt P41968). Description: Agonist activity at human MC3R expressed in HEK2936E cells assessed as cAMP production in presence of IBMX by time resolved fluorescence assay. Format: functional, cell-based.
T2 sequence (P41968 whole entry): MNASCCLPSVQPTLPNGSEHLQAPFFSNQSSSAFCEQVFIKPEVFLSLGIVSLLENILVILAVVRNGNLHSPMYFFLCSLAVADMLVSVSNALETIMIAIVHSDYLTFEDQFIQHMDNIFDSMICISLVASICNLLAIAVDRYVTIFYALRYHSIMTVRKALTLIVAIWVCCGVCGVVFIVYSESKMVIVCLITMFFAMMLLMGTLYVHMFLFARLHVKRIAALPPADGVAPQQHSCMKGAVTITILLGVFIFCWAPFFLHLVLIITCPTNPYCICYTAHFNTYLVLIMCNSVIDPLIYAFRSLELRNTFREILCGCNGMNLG
Test [4] is filed under the species Homo sapiens. Kind of test: Selectivity ratio of Ki for human MC3R to Ki for human MC1R.
The target of test [5] is T1, Melanocyte-stimulating hormone receptor. Description: Displacement of [125I]-NDP-alpha-MSH from human MC1R expressed in HEK2936E cell membrane measured after 16 to 23 hrs by 1450 microbeta trilux scintillation proximity assay. Format: cell membranes. In general terms: Displacement assays read how much labelled ligand stays bound in the presence of the test substance.

Test [6] has as its target T2, Melanocortin receptor 3. Description: Displacement of [125I]-NDP-alpha-MSH from human MC3R expressed in HEK2936E cell membrane measured after 16 to 23 hrs by 1450 microbeta trilux scintillation proximity assay. It counts as cell membranes.
In test [7] the target is T3, Melanocortin receptor 4 (Homo sapiens, UniProt P32245). Description: Displacement of [125I]-NDP-alpha-MSH from human MC4R expressed in HEK2936E cell membrane measured after 16 to 23 hrs by 1450 microbeta trilux scintillation proximity assay. Format: cell membranes.
T3 sequence (P32245 whole entry): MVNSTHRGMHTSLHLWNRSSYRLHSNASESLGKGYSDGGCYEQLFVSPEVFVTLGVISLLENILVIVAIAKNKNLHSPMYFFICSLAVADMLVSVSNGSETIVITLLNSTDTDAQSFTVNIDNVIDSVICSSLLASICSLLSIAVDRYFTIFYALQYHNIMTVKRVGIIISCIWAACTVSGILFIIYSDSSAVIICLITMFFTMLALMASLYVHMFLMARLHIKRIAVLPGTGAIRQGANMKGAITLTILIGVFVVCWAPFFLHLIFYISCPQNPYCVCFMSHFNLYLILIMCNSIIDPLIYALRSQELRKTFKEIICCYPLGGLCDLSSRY
The species entered for test [8] is Homo sapiens. Kind of test: Selectivity ratio of EC50 for human MC4R to EC50 for human MC1R.
Test [9] is filed under the species Homo sapiens. Description: Selectivity ratio of EC50 for human MC3R to EC50 for human MC1R.
The target of test [10] is T3, Melanocortin receptor 4. Kind of test: Agonist activity at human MC4R expressed in HEK2936E cells assessed as cAMP production in presence of IBMX by time resolved fluorescence assay. Format: functional, cell-based.

Each structure is given as a SMILES string. *1 amine or outer side, *2 acyl side, *3 side chain or, on linkers, in order; H or OH if unused. Where a SMILES comes first, the peptide text is derived from it. Bridges are numbered along the chain shown (N, C = ends). [ ]: non-standard residue; d: D form. Maleimide(3,4-diyl) = O=C1NC(=O)C([*:2])=C1[*:1]; C6F4(1,4-diyl) = Fc1c(F)c([*:2])c(F)c(F)c1[*:1]; mXylylene = c1cc(C[*:1])cc(C[*:2])c1; oXylylene = c1ccc(C[*:2])c(C[*:1])c1; pXylylene = c1cc(C[*:2])ccc1C[*:1]; NMeR = CN[C@@H](CCCNC(=N)N)C(=O)O; CH2COCH2 = O=C(C[*:1])C[*:2]; Nle = CCCC[C@H](N)C(=O)O

The term Ki denotes a dissociation constant, usually derived from enzyme kinetics or from competition with a known ligand.

T1 sequence (Q01726 whole entry): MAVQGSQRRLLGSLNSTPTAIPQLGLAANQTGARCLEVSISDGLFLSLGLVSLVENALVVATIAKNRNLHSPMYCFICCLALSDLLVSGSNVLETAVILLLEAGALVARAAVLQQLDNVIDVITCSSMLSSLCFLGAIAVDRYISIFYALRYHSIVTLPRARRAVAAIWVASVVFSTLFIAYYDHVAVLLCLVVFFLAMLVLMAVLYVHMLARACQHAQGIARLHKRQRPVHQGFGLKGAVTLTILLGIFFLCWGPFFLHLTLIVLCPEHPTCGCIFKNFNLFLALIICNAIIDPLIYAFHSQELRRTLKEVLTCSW

For `CC[C@H](C)[C@@H]1NC(=O)[C@@H]2CCCN2C(=O)[C@H](Cc2c[nH]c3ccccc23)NC(=O)[C@H](CCCNC(=N)N)N(C)C(=O)[C@H](Cc2ccccc2)NC(=O)[C@H](Cc2cnc[nH]2)NC(=O)[C@H]([C@@H](C)O)NC(=O)[C@@H](NC(C)=O)CSSC[C@@H](C(N)=O)NC1=O` (Ac-CTHF[NMeR]WPIC-NH2; disulfide 1-9), the values for the Ratio Ki in the test filed under Homo sapiens [1] and in the test listed under Homo sapiens [4] were 2 and 20, respectively. Besides, the EC50 in [2] is 8.71 nM; on Melanocortin receptor 3 [3], 39.8 nM; at Melanocortin receptor 4 [10], 60.3 nM. For the same molecule, the Ki in [5] was 195 nM; at Melanocortin receptor 3 [6], 3980 nM; on Melanocortin receptor 4 [7] it was 347 nM. Also, the figures for the Ratio EC50 in the test filed under Homo sapiens [8] and in the test filed under Homo sapiens [9] were 7 and 5, respectively.
For `CC[C@H](C)[C@@H]1NC(=O)[C@@H]2CCCN2C(=O)[C@H](Cc2c[nH]c3ccccc23)NC(=O)[C@H](CCCNC(=N)N)N(C)C(=O)[C@H](Cc2ccccc2)NC(=O)[C@H](Cc2cnc[nH]2)NC(=O)[C@H]([C@@H](C)O)NC(=O)[C@@H](NC(C)=O)CSCc2cccc(c2)CSC[C@@H](C(N)=O)NC1=O` (Ac-CTHF[NMeR]WPIC-NH2; linker 1-9 via mXylylene), the Ratio Ki in the test listed under Homo sapiens [1] is 12; in the test filed under Homo sapiens [4] it was 83. The EC50 in test [2] was 2.95 nM; at Melanocortin receptor 3 [3], 195 nM; on Melanocortin receptor 4 [10], 302 nM. For the same molecule, the figures for the Ki (in test [5]; at Melanocortin receptor 3 [6]; at Melanocortin receptor 4 [7]) were 110 nM, 9120 nM and 1290 nM, respectively. Moreover, the Ratio EC50 turned out to be 103 in the test listed under Homo sapiens [8] and 66 in the test listed under Homo sapiens [9].
As to `CC[C@H](C)[C@@H]1NC(=O)[C@@H]2CCCN2C(=O)[C@H](Cc2c[nH]c3ccccc23)NC(=O)[C@H](CCCNC(=N)N)N(C)C(=O)[C@H](Cc2ccccc2)NC(=O)[C@H](Cc2cnc[nH]2)NC(=O)[C@H]([C@@H](C)O)NC(=O)[C@@H](NC(C)=O)CSCc2ccccc2CSC[C@@H](C(N)=O)NC1=O` (Ac-CTHF[NMeR]WPIC-NH2; linker 1-9 via oXylylene), the Ratio Ki is 33 in the test listed under Homo sapiens [1] and 191 in the test filed under Homo sapiens [4]. The EC50 in [2] is 1.86 nM; at Melanocortin receptor 3 [3], 295 nM; on Melanocortin receptor 4 [10], 398 nM. The Ki in test [5] was 64.6 nM; on Melanocortin receptor 3 [6], 12300 nM; at Melanocortin receptor 4 [7], 2140 nM. The Ratio EC50 in the test filed under Homo sapiens [8] is 212; in the test listed under Homo sapiens [9] it was 58.
On to `CC[C@H](C)[C@@H]1NC(=O)[C@@H]2CCCN2C(=O)[C@H](Cc2c[nH]c3ccccc23)NC(=O)[C@H](CCCNC(=N)N)N(C)C(=O)[C@H](Cc2ccccc2)NC(=O)[C@H](Cc2cnc[nH]2)NC(=O)[C@H]([C@@H](C)O)NC(=O)[C@@H](NC(C)=O)CSCc2ccc(cc2)CSC[C@@H](C(N)=O)NC1=O` (Ac-CTHF[NMeR]WPIC-NH2; linker 1-9 via pXylylene), for which the Ratio Ki was determined as 7 in the test filed under Homo sapiens [1] and 87 in the test filed under Homo sapiens [4]. In addition, the EC50 in [2] was 5.13 nM; at Melanocortin receptor 3 [3] it was 162 nM; on Melanocortin receptor 4 [10] it was 309 nM. The values for the Ki (in test [5]; on Melanocortin receptor 3 [6]; at Melanocortin receptor 4 [7]) were 112 nM, 9770 nM and 759 nM, respectively. The values for the Ratio EC50 in the test filed under Homo sapiens [8] and in the test filed under Homo sapiens [9] were 60 and 32, respectively.
Turning to `CCCC[C@@H]1NC(=O)[C@@H]2CSSC[C@H](NC(=O)[C@H](CCCNC(=N)N)NC(=O)[C@H](CC(=O)O)NC(=O)[C@H](Cc3c[nH]c4ccccc34)NC(=O)[C@H](CCCNC(=N)N)NC(=O)[C@H](Cc3ccccc3)NC(=O)[C@H](Cc3cnc[nH]3)NC(=O)CNC1=O)C(=O)N[C@@H](Cc1cnc[nH]1)C(=O)N[C@@H](Cc1ccccc1)C(=O)N[C@@H](CCCNC(=N)N)C(=O)N[C@@H](Cc1c[nH]c3ccccc13)C(=O)N[C@@H](CCCNC(=N)N)C(=O)N2` (cyclo(CHFRWRC[Nle]GHFRWDR); disulfide 1-7), the figures for the Ratio Ki in the test filed under Homo sapiens [1] and in the test filed under Homo sapiens [4] were 25 and 6, respectively. The EC50 was 0.339 nM in test [2], 0.229 nM on Melanocortin receptor 3 [3] and 8.13 nM on Melanocortin receptor 4 [10]. Besides, the Ki in [5] is 3.31 nM; at Melanocortin receptor 3 [6], 20.9 nM; on Melanocortin receptor 4 [7] it was 81.3 nM. The results for the Ratio EC50 in the test filed under Homo sapiens [8] and in the test listed under Homo sapiens [9] were 35 and 1, respectively.
For `CCCC[C@@H]1NC(=O)[C@@H]2CSc3c(F)c(F)c(c(F)c3F)SC[C@H](NC(=O)[C@H](CCCNC(=N)N)NC(=O)[C@H](CC(=O)O)NC(=O)[C@H](Cc3c[nH]c4ccccc34)NC(=O)[C@H](CCCNC(=N)N)NC(=O)[C@H](Cc3ccccc3)NC(=O)[C@H](Cc3cnc[nH]3)NC(=O)CNC1=O)C(=O)N[C@@H](Cc1cnc[nH]1)C(=O)N[C@@H](Cc1ccccc1)C(=O)N[C@@H](CCCNC(=N)N)C(=O)N[C@@H](Cc1c[nH]c3ccccc13)C(=O)N[C@@H](CCCNC(=N)N)C(=O)N2` (cyclo(CHFRWRC[Nle]GHFRWDR); linker 1-7 via C6F4(1,4-diyl)), the Ratio Ki in the test listed under Homo sapiens [1] was determined as 58; in the test filed under Homo sapiens [4], 15. In addition, the EC50 in test [2] is 0.123 nM; on Melanocortin receptor 3 [3] it was 0.275 nM; on Melanocortin receptor 4 [10] it was 3.55 nM. In addition, the Ki in test [5] was 0.794 nM; on Melanocortin receptor 3 [6] it was 11.7 nM; at Melanocortin receptor 4 [7] it was 45.7 nM. Further, the Ratio EC50 in the test filed under Homo sapiens [8] was determined as 29; in the test listed under Homo sapiens [9], 2.
Turning to `CCCC[C@@H]1NC(=O)[C@@H]2CSCC(=O)CSC[C@H](NC(=O)[C@H](CCCNC(=N)N)NC(=O)[C@H](CC(=O)O)NC(=O)[C@H](Cc3c[nH]c4ccccc34)NC(=O)[C@H](CCCNC(=N)N)NC(=O)[C@H](Cc3ccccc3)NC(=O)[C@H](Cc3cnc[nH]3)NC(=O)CNC1=O)C(=O)N[C@@H](Cc1cnc[nH]1)C(=O)N[C@@H](Cc1ccccc1)C(=O)N[C@@H](CCCNC(=N)N)C(=O)N[C@@H](Cc1c[nH]c3ccccc13)C(=O)N[C@@H](CCCNC(=N)N)C(=O)N2` (cyclo(CHFRWRC[Nle]GHFRWDR); linker 1-7 via CH2COCH2), the Ratio Ki in the test filed under Homo sapiens [1] is 21; in the test listed under Homo sapiens [4], 11. The EC50 in test [2] is 0.55 nM; at Melanocortin receptor 3 [3], 0.692 nM; on Melanocortin receptor 4 [10], 7.24 nM. The results for the Ki (in test [5]; at Melanocortin receptor 3 [6]; on Melanocortin receptor 4 [7]) were 2.09 nM, 23.4 nM and 43.7 nM, respectively. The Ratio EC50 in the test listed under Homo sapiens [8] amounted to 13; in the test listed under Homo sapiens [9] it was 1.
On to `CCCC[C@@H]1NC(=O)[C@@H]2CSC3=C(SC[C@H](NC(=O)[C@H](CCCNC(=N)N)NC(=O)[C@H](CC(=O)O)NC(=O)[C@H](Cc4c[nH]c5ccccc45)NC(=O)[C@H](CCCNC(=N)N)NC(=O)[C@H](Cc4ccccc4)NC(=O)[C@H](Cc4cnc[nH]4)NC(=O)CNC1=O)C(=O)N[C@@H](Cc1cnc[nH]1)C(=O)N[C@@H](Cc1ccccc1)C(=O)N[C@@H](CCCNC(=N)N)C(=O)N[C@@H](Cc1c[nH]c4ccccc14)C(=O)N[C@@H](CCCNC(=N)N)C(=O)N2)C(=O)NC3=O` (cyclo(CHFRWRC[Nle]GHFRWDR); linker 1-7 via Maleimide(3,4-diyl)), for which the figures for the Ratio Ki in the test filed under Homo sapiens [1] and in the test filed under Homo sapiens [4] were 22 and 8, respectively. The EC50 was 0.288 nM in [2], 0.398 nM at Melanocortin receptor 3 [3] and 5.01 nM on Melanocortin receptor 4 [10]. Besides, the inhibition constant (Ki) was 3.63 nM in test [5], 28.2 nM on Melanocortin receptor 3 [6] and 81.3 nM on Melanocortin receptor 4 [7]. The results for the Ratio EC50 in the test listed under Homo sapiens [8] and in the test listed under Homo sapiens [9] were 17 and 1, respectively.

For the origin of these results see ChEMBL document CHEMBL5104192, “Late-Stage Functionalization with Cysteine Staples Generates Potent and Selective Melanocortin Receptor-1 Agonists” (J Med Chem, 2022).
